Data taken from the NIST ThermoML archive (doi:10.1016/j.jct.2014.02.009).
± gives the expanded uncertainty stated by the source.

Conditions: 100 kPa, Liquid; for viscosity: Falling or rolling sphere viscometry; for speed of sound: Sing-around technique in a fixed-path interferometer; for mass density: Vibrating tube method

| Structure (SMILES) | viscosity (293.15 K) [mPa·s] | speed of sound (293.15 K) [m/s] | mass density (293.15 K) [kg/m3] | viscosity (298.15 K) [mPa·s] | speed of sound (298.15 K) [m/s] | mass density (298.15 K) [kg/m3] | viscosity (303.15 K) [mPa·s] | speed of sound (303.15 K) [m/s] | mass density (303.15 K) [kg/m3] | viscosity (308.15 K) [mPa·s] | speed of sound (308.15 K) [m/s] | mass density (308.15 K) [kg/m3] | viscosity (313.15 K) [mPa·s] | speed of sound (313.15 K) [m/s] | mass density (313.15 K) [kg/m3] | viscosity (318.15 K) [mPa·s] | speed of sound (318.15 K) [m/s] | mass density (318.15 K) [kg/m3] | viscosity (323.15 K) [mPa·s] | speed of sound (323.15 K) [m/s] | other results |
| --- | --- | --- | --- | --- | --- | --- | --- | --- | --- | --- | --- | --- | --- | --- | --- | --- | --- | --- | --- | --- | --- |
| CC(=O)O.O=C1CCCN1 [γ-butyrolactam acetate] | 9.36 ± 0.24 | 1514.5 ± 3.2 | 1099.8 ± 2.3 | 7.84 ± 0.2 | 1496.7 ± 3.2 | 1095.35 ± 2.3 | 6.66 ± 0.17 | 1480.9 ± 3.2 | 1090.91 ± 2.3 | 5.72 ± 0.15 | 1464 ± 3.2 | 1086.47 ± 2.2 | 4.96 ± 0.13 | 1447.2 ± 3.2 | 1082.03 ± 2.2 | 4.35 ± 0.11 | 1429.3 ± 3.2 | 1077.57 ± 2.2 | 3.83 ± 0.1 | 1412.5 ± 3.2 | mass density (323.15 K): 1073.12 ± 2.2 kg/m3; viscosity (328.15 K): 3.4 ± 0.09 mPa·s; speed of sound (328.15 K): 1395.7 ± 3.2 m/s; mass density (328.15 K): 1068.69 ± 2.2 kg/m3; viscosity (333.15 K): 3.06 ± 0.08 mPa·s; speed of sound (333.15 K): 1379 ± 3.2 m/s; mass density (333.15 K): 1064.24 ± 2.1 kg/m3 |
| O=C1CCCN1.O=CO [γ-butyrolactam formate] | 7.17 ± 0.19 | 1531.2 ± 3.2 | 1140.78 ± 2.5 | 6.14 ± 0.16 | 1515.7 ± 3.2 | 1136.14 ± 2.5 | 5.32 ± 0.14 | 1500 ± 3.2 | 1131.51 ± 2.5 | 4.64 ± 0.12 | 1484.4 ± 3.2 | 1126.89 ± 2.4 | 4.09 ± 0.11 | 1468.5 ± 3.2 | 1122.25 ± 2.4 | 3.63 ± 0.09 | 1452.9 ± 3.2 | 1117.61 ± 2.4 | 3.25 ± 0.08 | 1437.5 ± 3.2 | mass density (323.15 K): 1112.99 ± 2.4 kg/m3; viscosity (328.15 K): 2.92 ± 0.08 mPa·s; speed of sound (328.15 K): 1422.1 ± 3.2 m/s; mass density (328.15 K): 1108.35 ± 2.4 kg/m3; viscosity (333.15 K): 2.65 ± 0.07 mPa·s; speed of sound (333.15 K): 1406.8 ± 3.2 m/s; mass density (333.15 K): 1103.72 ± 2.3 kg/m3 |
| CCCCCC(=O)O.O=C1CCCN1 [γ-butyrolactam hexanoate] | 14.67 ± 0.43 | 1429.3 ± 4.2 | 1018.78 ± 3.5 | 12.13 ± 0.35 | 1412.8 ± 4.2 | 1014.67 ± 3.5 | 10.16 ± 0.3 | 1396.2 ± 4.2 | 1010.57 ± 3.5 | 8.63 ± 0.25 | 1379.6 ± 4.2 | 1006.47 ± 3.4 | 7.4 ± 0.22 | 1363.2 ± 4.2 | 1002.37 ± 3.4 | 6.42 ± 0.19 | 1346.9 ± 4.2 | 998.27 ± 3.4 | 5.61 ± 0.16 | 1330.7 ± 4.2 | mass density (323.15 K): 994.17 ± 3.4 kg/m3; viscosity (328.15 K): 4.94 ± 0.14 mPa·s; speed of sound (328.15 K): 1314.7 ± 4.2 m/s; mass density (328.15 K): 990.08 ± 3.3 kg/m3; viscosity (333.15 K): 4.39 ± 0.13 mPa·s; speed of sound (333.15 K): 1298.6 ± 4.2 m/s; mass density (333.15 K): 985.98 ± 3.3 kg/m3 |
| CC(=O)O.O=C1CCCCCN1 [ε-caprolactam acetate] | 39.81 ± 1.2 | 1523.1 ± 4.2 | 1060.03 ± 3.8 | 29.03 ± 0.85 | 1507 ± 4.2 | 1055.92 ± 3.8 | 21.92 ± 0.64 | 1489.7 ± 4.2 | 1051.83 ± 3.8 | 17.03 ± 0.5 | 1472.8 ± 4.2 | 1047.74 ± 3.7 | 13.68 ± 0.4 | 1456.1 ± 4.2 | 1043.65 ± 3.7 | 11.1 ± 0.32 | 1439.3 ± 4.2 | 1039.56 ± 3.7 | 9.19 ± 0.27 | 1422.6 ± 4.2 | mass density (323.15 K): 1035.46 ± 3.6 kg/m3; viscosity (328.15 K): 7.67 ± 0.22 mPa·s; speed of sound (328.15 K): 1406 ± 4.2 m/s; mass density (328.15 K): 1031.37 ± 3.6 kg/m3; viscosity (333.15 K): 6.48 ± 0.19 mPa·s; speed of sound (333.15 K): 1389.5 ± 4.2 m/s; mass density (333.15 K): 1027.28 ± 3.6 kg/m3 |
| O=C1CCCCCN1.O=CO [ε-caprolactam formate] | 30.96 ± 0.9 | 1552 ± 4.2 | 1087.05 ± 4 | 23.92 ± 0.7 | 1536 ± 4.2 | 1082.87 ± 4 | 18.86 ± 0.55 | 1520.2 ± 4.2 | 1078.69 ± 4 | 15.14 ± 0.44 | 1504.4 ± 4.2 | 1074.51 ± 3.9 | 12.36 ± 0.36 | 1488.5 ± 4.2 | 1070.32 ± 3.9 | 10.24 ± 0.3 | 1472.8 ± 4.2 | 1066.13 ± 3.9 | 8.59 ± 0.25 | 1457.9 ± 4.2 | mass density (323.15 K): 1061.95 ± 3.9 kg/m3; viscosity (328.15 K): 7.3 ± 0.21 mPa·s; speed of sound (328.15 K): 1441.1 ± 4.2 m/s; mass density (328.15 K): 1057.77 ± 3.8 kg/m3; viscosity (333.15 K): 6.27 ± 0.18 mPa·s; speed of sound (333.15 K): 1425.1 ± 4.2 m/s; mass density (333.15 K): 1053.59 ± 3.8 kg/m3 |
| CCCCCC(=O)O.O=C1CCCCCN1 [ε-caprolactam hexanoate] | 42 ± 1.2 | 1472.7 ± 4.2 | 998.59 ± 3.4 | 30.85 ± 0.9 | 1456 ± 4.2 | 994.69 ± 3.4 | 23.4 ± 0.68 | 1439 ± 4.2 | 990.78 ± 3.3 | 18.11 ± 0.53 | 1421.9 ± 4.2 | 986.88 ± 3.3 | 14.25 ± 0.42 | 1404.8 ± 4.2 | 982.97 ± 3.3 | 11.59 ± 0.34 | 1387.8 ± 4.2 | 979.04 ± 3.3 | 9.44 ± 0.28 | 1370.8 ± 4.2 | mass density (323.15 K): 975.15 ± 3.2 kg/m3; viscosity (328.15 K): 7.91 ± 0.23 mPa·s; speed of sound (328.15 K): 1353.4 ± 4.2 m/s; mass density (328.15 K): 971.24 ± 3.2 kg/m3; viscosity (333.15 K): 6.64 ± 0.19 mPa·s; speed of sound (333.15 K): 1336.8 ± 4.2 m/s; mass density (333.15 K): 967.34 ± 3.2 kg/m3 |
